Read-outs that look alike come from different tables or passages of the source.
Key:
Type in all cases: biochemical
BTK-WT = target: T1, BTK-WT (Homo sapiens, UniProt Q06187); experiment: Btk in vitro inhibitory activity (one of Method A TR-FRET, Method B electrophoretic mobility shift, Method C radiometric filter binding); conditions: read-out: IC50 BTK-WT
T1 construct: purified from insect cells as a full-length construct containing an N-terminal 6X-His tag; His6 (N); made in house; host or cells: insect cells (baculovirus Sf21 in Method B)

JAK3 = target: T2, JAK3 (Homo sapiens, UniProt P52333); experiment: Inhibition of a panel of kinases, in vitro HotSpot kinase assay: JAK3; conditions: read-out: IC50 JAK3
T2 sequence (P52333 1-1124): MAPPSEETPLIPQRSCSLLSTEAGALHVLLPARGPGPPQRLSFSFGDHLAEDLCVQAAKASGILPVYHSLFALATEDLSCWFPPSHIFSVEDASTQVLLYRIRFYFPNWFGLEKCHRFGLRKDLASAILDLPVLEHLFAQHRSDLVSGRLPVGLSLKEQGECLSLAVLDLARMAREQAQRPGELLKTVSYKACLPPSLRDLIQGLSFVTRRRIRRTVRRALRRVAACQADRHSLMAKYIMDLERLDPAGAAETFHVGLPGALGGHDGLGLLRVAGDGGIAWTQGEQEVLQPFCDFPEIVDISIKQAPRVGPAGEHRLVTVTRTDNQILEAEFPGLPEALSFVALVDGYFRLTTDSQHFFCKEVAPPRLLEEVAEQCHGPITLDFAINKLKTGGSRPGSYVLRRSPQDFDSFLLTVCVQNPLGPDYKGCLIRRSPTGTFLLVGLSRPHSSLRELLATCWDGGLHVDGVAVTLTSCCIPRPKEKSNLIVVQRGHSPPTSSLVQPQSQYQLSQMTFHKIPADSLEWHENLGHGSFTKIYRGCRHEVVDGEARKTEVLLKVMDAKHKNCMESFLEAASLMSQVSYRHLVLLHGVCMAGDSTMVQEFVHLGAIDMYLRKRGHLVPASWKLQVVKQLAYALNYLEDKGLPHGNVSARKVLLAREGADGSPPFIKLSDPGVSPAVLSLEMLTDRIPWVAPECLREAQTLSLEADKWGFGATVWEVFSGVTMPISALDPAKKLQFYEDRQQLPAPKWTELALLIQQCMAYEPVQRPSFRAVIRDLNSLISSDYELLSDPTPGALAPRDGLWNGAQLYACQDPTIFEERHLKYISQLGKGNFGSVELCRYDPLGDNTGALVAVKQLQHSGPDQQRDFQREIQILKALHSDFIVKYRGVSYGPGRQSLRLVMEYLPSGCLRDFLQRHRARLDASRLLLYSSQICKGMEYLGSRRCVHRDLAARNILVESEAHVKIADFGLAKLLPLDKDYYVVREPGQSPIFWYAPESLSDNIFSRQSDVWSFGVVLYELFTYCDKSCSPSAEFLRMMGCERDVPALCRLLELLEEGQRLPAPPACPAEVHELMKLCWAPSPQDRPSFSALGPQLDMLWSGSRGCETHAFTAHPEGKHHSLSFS

LCK = LCK (Homo sapiens, UniProt P06239); experiment: Inhibition of a panel of kinases, in vitro HotSpot kinase assay: LCK; conditions: read-out: IC50 LCK
EGFR = EGFR (Homo sapiens, UniProt P00533); experiment: Inhibition of a panel of kinases, in vitro HotSpot kinase assay: EGFR
Procedure: (§1) The degree of inhibition of a panel of kinases is determined using the in vitro HotSpot kinase assay (purified enzymes, ^33P-ATP, an appropriate substrate and 1 μM ATP).

SRC = SRC (Homo sapiens, UniProt P12931); experiment: Inhibition of a panel of kinases, in vitro HotSpot kinase assay: SRC
Procedure: as §1

[1] = Table 13, A compounds, 1 μM ATP

Sequence of LCK (P06239 whole entry): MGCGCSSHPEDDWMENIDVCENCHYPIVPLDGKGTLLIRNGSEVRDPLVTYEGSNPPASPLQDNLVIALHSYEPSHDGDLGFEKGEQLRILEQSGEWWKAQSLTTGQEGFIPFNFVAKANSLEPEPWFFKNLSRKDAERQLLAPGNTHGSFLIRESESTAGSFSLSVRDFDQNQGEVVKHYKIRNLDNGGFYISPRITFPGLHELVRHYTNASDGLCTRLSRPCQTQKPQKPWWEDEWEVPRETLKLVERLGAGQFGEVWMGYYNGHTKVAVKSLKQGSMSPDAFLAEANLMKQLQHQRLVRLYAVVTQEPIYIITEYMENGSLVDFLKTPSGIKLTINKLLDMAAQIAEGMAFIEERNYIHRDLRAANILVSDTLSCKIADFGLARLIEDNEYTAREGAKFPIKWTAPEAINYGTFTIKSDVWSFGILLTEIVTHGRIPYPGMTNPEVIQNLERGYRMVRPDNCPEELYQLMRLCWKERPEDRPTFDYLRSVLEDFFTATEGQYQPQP
Sequence of EGFR (P00533 25-1210): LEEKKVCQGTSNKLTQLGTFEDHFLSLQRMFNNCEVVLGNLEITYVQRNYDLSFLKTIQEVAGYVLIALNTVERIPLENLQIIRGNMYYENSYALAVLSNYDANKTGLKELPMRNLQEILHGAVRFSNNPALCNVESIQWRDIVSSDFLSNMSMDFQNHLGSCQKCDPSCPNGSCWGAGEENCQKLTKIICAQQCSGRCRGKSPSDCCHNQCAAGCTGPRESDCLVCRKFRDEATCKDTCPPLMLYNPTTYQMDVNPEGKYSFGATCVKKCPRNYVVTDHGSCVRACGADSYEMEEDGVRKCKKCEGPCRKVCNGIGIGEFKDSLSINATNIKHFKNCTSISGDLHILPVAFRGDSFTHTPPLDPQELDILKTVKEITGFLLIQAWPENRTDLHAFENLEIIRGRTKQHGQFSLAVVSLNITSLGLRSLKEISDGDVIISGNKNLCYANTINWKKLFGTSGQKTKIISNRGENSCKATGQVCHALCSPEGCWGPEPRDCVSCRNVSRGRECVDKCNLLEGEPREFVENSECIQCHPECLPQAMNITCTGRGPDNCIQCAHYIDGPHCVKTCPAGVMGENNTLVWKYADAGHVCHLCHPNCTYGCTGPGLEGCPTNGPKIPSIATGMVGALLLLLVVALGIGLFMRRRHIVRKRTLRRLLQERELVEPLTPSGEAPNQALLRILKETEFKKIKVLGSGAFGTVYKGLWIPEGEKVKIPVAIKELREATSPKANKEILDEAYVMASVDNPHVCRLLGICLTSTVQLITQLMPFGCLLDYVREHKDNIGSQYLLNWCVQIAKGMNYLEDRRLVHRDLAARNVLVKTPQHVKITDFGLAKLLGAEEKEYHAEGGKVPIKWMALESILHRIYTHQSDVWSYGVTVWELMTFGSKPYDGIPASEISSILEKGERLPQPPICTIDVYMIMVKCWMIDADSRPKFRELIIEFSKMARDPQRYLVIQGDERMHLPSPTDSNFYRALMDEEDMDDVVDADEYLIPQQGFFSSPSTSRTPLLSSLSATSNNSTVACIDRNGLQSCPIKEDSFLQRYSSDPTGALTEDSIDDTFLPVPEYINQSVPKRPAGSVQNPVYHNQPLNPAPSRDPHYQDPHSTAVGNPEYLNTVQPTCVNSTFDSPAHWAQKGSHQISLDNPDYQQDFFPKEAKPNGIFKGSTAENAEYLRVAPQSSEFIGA
Sequence of SRC (P12931 whole entry): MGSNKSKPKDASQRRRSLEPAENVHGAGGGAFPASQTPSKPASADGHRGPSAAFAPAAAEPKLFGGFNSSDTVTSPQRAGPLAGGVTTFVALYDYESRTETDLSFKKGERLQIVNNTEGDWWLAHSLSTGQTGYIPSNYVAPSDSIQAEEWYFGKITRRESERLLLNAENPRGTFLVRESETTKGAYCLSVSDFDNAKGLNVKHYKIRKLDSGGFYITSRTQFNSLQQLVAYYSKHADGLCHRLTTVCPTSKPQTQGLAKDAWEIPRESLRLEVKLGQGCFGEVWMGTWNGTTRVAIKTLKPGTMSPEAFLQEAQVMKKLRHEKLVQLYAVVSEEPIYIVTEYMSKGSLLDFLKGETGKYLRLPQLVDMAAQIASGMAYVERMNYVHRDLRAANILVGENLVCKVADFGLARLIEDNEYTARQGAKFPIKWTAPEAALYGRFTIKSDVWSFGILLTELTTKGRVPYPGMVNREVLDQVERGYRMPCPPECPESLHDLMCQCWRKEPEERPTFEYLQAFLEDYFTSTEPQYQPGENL
T1 sequence (Q06187 whole entry): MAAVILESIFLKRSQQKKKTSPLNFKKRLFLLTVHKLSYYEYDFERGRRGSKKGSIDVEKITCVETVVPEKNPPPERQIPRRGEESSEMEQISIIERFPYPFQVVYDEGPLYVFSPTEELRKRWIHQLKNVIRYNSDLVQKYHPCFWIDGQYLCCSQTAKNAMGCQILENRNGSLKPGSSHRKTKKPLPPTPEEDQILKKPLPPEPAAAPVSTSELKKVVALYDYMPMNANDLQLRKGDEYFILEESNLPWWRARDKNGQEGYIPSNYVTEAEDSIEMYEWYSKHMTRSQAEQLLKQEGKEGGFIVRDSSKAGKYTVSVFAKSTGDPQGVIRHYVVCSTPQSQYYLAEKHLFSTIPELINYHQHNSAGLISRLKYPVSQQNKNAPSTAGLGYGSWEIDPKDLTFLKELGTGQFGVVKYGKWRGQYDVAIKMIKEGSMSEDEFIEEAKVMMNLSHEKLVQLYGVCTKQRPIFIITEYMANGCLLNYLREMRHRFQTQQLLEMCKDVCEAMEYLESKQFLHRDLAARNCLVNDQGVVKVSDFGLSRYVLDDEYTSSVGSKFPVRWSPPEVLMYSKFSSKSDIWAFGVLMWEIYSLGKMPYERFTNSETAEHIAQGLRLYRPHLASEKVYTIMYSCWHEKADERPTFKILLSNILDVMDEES

Row | Structure (SMILES) | IC50 (BTK-WT; Table 13, A compounds) | IC50 (JAK3; [1]) | IC50 (LCK; [1]) | IC50 (EGFR; [1]) | IC50 (SRC; [1]) | IC50 (EGFR; E compounds, Table 17) | IC50 (SRC; E compounds, Table 17) | IC50 (BTK-WT; E compounds, Table 17) | IC50 (JAK3; E compounds, Table 17) | IC50 (LCK; E compounds, Table 17)
1 | CN(C)C(=O)N[C@@H]1CCCN(c2cnc(C(N)=O)c(Nc3ccc(C4(C)CCN(C5CCCC5)CC4)cc3)n2)[C@@H]1CO [Example A-101, 3-{[4-(1-cyclopentyl-4-methylpiperidin-4-yl)phenyl]amino}-5-[(2S,3R)-3-[(dimethylcarbamoyl)amino]-2-(hydroxymethyl)piperidin-1-yl]pyrazine-2-carboxamide] | ≤ 10 nM | 1000 to 10000 nM | 100 to 1000 nM | 100 to 1000 nM | 100 to 1000 nM | – | – | – | – | –
2 | C[C@@H]1[C@H](NC(=O)c2ccc(C3CC3)cc2F)CCCN1c1cnc(C(N)=O)c(Nc2ccc(CN3CCN(C)CC3)cc2)n1 [Example A-106, 5-[(2R,3R)-3-(4-cyclopropyl-2-fluorobenzamido)-2-methylpiperidin-1-yl]-3-({4-[(4-methylpiperazin-1-yl)meth-yl]phenyl}amino)pyrazine-2-carboxamide] | ≤ 10 nM | 100 to 1000 nM | 10 to 100 nM | 100 to 1000 nM | 100 to 1000 nM | – | – | – | – | –
3 | Cc1cc(Nc2nc(N3CCC[C@@H](n4ccc5cc(C6CC6)ccc5c4=O)C3)cnc2C(N)=O)sn1 [Example A-107, 5-[(3R)-3-(6-cyclopropyl-1-oxo-1,2-dihydroisoquinolin-2-yl)piperidin-1-yl]-3-[(3-methyl-1,2-thiazol-5-yl)amino]pyrazine-2-carboxamide] | ≤ 10 nM | > 10000 nM | > 10000 nM | > 10000 nM | > 10000 nM | – | – | – | – | –
4 | C[C@@H]1[C@H](NC(=O)c2ccc(C3CC3)cc2F)CCCN1c1cnc(C(N)=O)c(Nc2nc3c(s2)CN(C)CC3)n1 [Example A-108, 5-[(2R,3R)-3-(4-cyclopropyl-2-fluorobenzamido)-2-methylpiperidin-1-yl]-3-({5-methyl-4H,5H,6H,7H-[1,3]thiazolo[5,4-c]pyridin-2-yl}amino)pyrazine-2-carboxamide] | 100 to 1000 nM | > 10000 nM | > 10000 nM | > 10000 nM | > 10000 nM | – | – | – | – | –
5 | C[C@@H]1[C@H](NC(=O)c2ccc(C3CC3)cc2F)CCCN1c1cnc(C(N)=O)c(Nc2cnn(C)c2)n1 [Example A-110, 5-[(2R,3R)-3-(4-cyclopropyl-2-fluorobenzamido)-2-methylpiperidin-1-yl]-3-[(1-methyl-1H-pyrazol-4-yl)amino]pyrazine-2-carboxamide] | ≤ 10 nM | 1000 to 10000 nM | 1000 to 10000 nM | 1000 to 10000 nM | 100 to 1000 nM | – | – | – | – | –
6 | CN1CCN(Cc2ccc(Nc3nc(N4CCC[C@@H](n5ccc6cc(C7CC7)ccc6c5=O)C4)cnc3C(N)=O)cc2)CC1 [Example A-111, 5-[(3R)-3-(6-cyclopropyl-1-oxo-1,2-dihydroisoquinolin-2-yl)piperidin-1-yl]-3-({4-[(4-methylpiperazin-1-yl)meth-yl]phenyl}amino)pyrazine-2-carboxamide] | ≤ 10 nM | 100 to 1000 nM | 100 to 1000 nM | 1000 to 10000 nM | 100 to 1000 nM | – | – | – | – | –
7 | CN1CCN(C(=O)c2ccc(Nc3nc(N4CCC[C@@H](n5ccc6cc(C7CC7)ccc6c5=O)C4)cnc3C(N)=O)cc2)CC1 [Example A-115, 5-[(3R)-3-(6-cyclo-propyl-1-oxo-1,2-dihydroisoquinolin-2-yl)piperidin-1-yl]-3-{[4-(4-methylpiperazine-1-carbonyl)phenyl]amino}pyr-azine-2-carboxamide] | ≤ 10 nM | 100 to 1000 nM | 100 to 1000 nM | 100 to 1000 nM | 100 to 1000 nM | – | – | – | – | –
8 | C[C@@H]1[C@H](NC(=O)c2ccc(C3CC3)cc2F)CCCN1c1cnc(C(N)=O)c(Nc2ccc(C3(C)CCN(C4CCCC4)CC3)cc2)n1 [Example A-121, 3-{[4-(1-cyclopentyl-4-methylpiperidin-4-yl)phenyl]amino}-5-[(2R,3R)-3-(4-cyclopropyl-2-fluorobenzamido)-2-methylpiperidin-1-yl]pyrazine-2-carboxamide] | ≤ 10 nM | 100 to 1000 nM | < 10 nM | 10 to 100 nM | ≤ 10 nM | – | – | – | – | –
9 | C[C@@H]1[C@H](NC(=O)c2ccc(C3CC3)cc2F)CCCN1c1cnc(C(N)=O)c(Nc2ccc(C(=O)N3CCN(C)CC3)cc2)n1 [Example A-122, 5-[(2R,3R)-3-(4-cyclopropyl-2-fluorobenzamido)-2-methylpiperidin-1-yl]-3-{[4-(4-methylpiperazine-1-carbonyl)phenyl]amino}pyr-azine-2-carboxamide] | ≤ 10 nM | 100 to 1000 nM | 100 to 1000 nM | 100 to 1000 nM | 100 to 1000 nM | – | – | – | – | –
10 | C=CC(=O)N[C@@H]1CCCN(c2nnc(C(N)=O)c(Nc3ccc(C4(C)CCN(C5CC5)CC4)cc3)n2)[C@@H]1C [Example E-2, 3-((2R,3R)-3-acrylamido-2-methylpiperidin-1-yl)-5-((4-(1-cyclopropyl-4-methylpiperidin-4-yl)phenyl)amino)-1,2,4-triazine-6-carboxamide] | – | – | – | – | – | – | – | ≤ 10 nM | 10 to 100 nM | 100 to 1000 nM
11 | C=CC(=O)N[C@@H]1CCCN(c2nnc(C(N)=O)c(Nc3ccc(Cl)cc3)n2)[C@@H]1C [Example E-5, 3-((2R,3R)-3-acrylamido-2-methylpiperidin-1-yl)-5-((4-chlorophenyl)amino)-1,2,4-triazine-6-carboxamide] | – | – | – | – | – | – | – | ≤ 10 nM | < 10 nM | < 10 nM
12 | C=CC(=O)N1CCC[C@@H](Nc2nnc(C(N)=O)c(Nc3ccc(Cl)cc3)n2)[C@H]1C [Example E-7, 3-(((2R,3R)-1-acryloyl-2-methylpiperidin-3-yl)amino)-5-((4-chlorophenyl)amino)-1,2,4-triazine-6-carboxamide] | – | – | – | – | – | – | – | ≤ 10 nM | < 10 nM | < 10 nM
13 | C=CC(=O)N1CCC[C@@H](Nc2nnc(C(N)=O)c(Nc3ccc(C4(C)CCN(C5CC5)CC4)cc3)n2)[C@H]1C [Example E-127, 3-(((2R,3R)-1-acryloyl-2-methylpiperidin-3-yl)amino)-5-((4-(1-cyclopropyl-4-methylpiperidin-4-yl)phenyl)amino)-1,2,4-triazine-6-carboxamide] | – | – | – | – | – | – | ≤ 10 nM | ≤ 10 nM | < 10 nM | < 10 nM

The next lines start with results.

Row | IC50 (BTK-WT; Table 13, A compounds) | IC50 (JAK3; [1]) | IC50 (LCK; [1]) | IC50 (EGFR; [1]) | IC50 (SRC; [1]) | IC50 (EGFR; E compounds, Table 17) | IC50 (SRC; E compounds, Table 17) | Structure (SMILES) | IC50 (BTK-WT; E compounds, Table 17) | IC50 (JAK3; E compounds, Table 17) | IC50 (LCK; E compounds, Table 17)
14 | – | – | – | – | – | ≤ 10 nM | – | C=CC(=O)N1CCC[C@@H](Nc2nnc(C(N)=O)c(Nc3ccc(C(C)(C)C)cc3)n2)C1 [Example E-24, (R)-3-(1-acryloylpiperidin-3-ylamino)-5-(4-tert-butylphenylamino)-1,2,4-triazine-6-carboxamide] | ≤ 10 nM | < 10 nM | 100 to 1000 nM
15 | – | – | – | – | – | – | 100 to 1000 nM | C=CC(=O)N1CCC[C@@H](N(C)c2cnc(C(N)=O)c(Nc3ccc(C(C)C)cc3)n2)C1 [Example E-102, (R)-5-((1-acryloylpiperidin-3-yl)(methyl)amino)-3-(4-isopropylphenylamino) pyrazine-2-carboxamide] | ≤ 10 nM | 10 to 100 nM | 1000 to 10000 nM
16 | – | – | – | – | – | – | 10 to 100 nM | CC(C)c1ccc(Nc2nc(N3CCC[C@@H](N4CCC[C@@H](Nc5cc(Cl)cc(C(F)(F)F)c5)C4=O)C3)nnc2C(N)=O)cc1 [Example E-128, 3-((3R,3′R)-3-((3-chloro-5-(trifluoromethyl)phenyl)amino)-2-oxo-[1,3′-bipiperidin]-1′-yl)-5-((4-isopropylphenyl)amino)-1,2,4-triazine-6-carboxamide] | 100 to 1000 nM | 1000 to 10000 nM | 10 to 100 nM

From patent publication US20210070748A1, “INHIBITORS OF BRUTONS TYROSINE KINASE” (Pharmacyclics LLC, priority 2015, published 2021)
